This note sets out measurements from patent EP1984353B1, “AURORA KINASE MODULATORS AND METHOD OF USE” (Amgen, Inc, priority 2006, dated 2007).

Structures can show the parent of a compound that is named as a salt. Where two headings read alike, the source gives them in different places.

One test concerns the target T1, AuroraA-TPX2 (Homo sapiens, UniProt O14965).
T1 construct: 20 µL of AuroraA-TPX2 KD GST; GST
T1 sequence (O14965 133-383 limits assumed): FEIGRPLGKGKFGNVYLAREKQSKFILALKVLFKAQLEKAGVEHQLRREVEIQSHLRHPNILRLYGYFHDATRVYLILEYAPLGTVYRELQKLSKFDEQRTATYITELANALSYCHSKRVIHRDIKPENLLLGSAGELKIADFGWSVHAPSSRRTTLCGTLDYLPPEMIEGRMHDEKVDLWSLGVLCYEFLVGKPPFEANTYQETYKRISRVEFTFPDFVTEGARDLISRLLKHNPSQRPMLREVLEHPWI
T1 sequence (Q9ULW0 1-43 partner limits assumed): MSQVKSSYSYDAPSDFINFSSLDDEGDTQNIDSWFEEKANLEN
Put plainly: AuroraA-TPX2 Homogeneous Time Resolved Fluorescent (HTRF) kinase assay. Type of test: biochemical. Here is the method: AuroraA-TPX2-Homogeneous Time Resolved Fluorescent (HTRF) Kinase Assay:
The Aurora-A HTRF assay begins with Aurora-A in the presence of ATP phosphorylating the biotinylated peptide PLK. The reaction incubates for about 120 min. Detection reagents are added to quench the reaction. These agents stop the reaction by diluting out the enzyme and chelating the metals due to the presence of EDTA. After addition, the assay is incubated overnight to allow the detection reagents to equilibrate.
The final concentration of PLK is about 1 µM. […] Buffer conditions are as follows: 60mM HEPES pH 7.5, 25mM NaCl, 10mM MgCl, 2mM DTT, 0.05% BSA.
The assay is quenched and stopped with 160 µL, of detection reagent. Detection reagents are as follows: Buffer made of 50mM Tris, pH 7.5, 100mM NaCl, 3mM EDTA, 0.05% BSA, 0.1% Tween20. Added to this buffer prior to reading is Steptavidin allophycocyanin (SA-APC) at a final conc in the assay of 0.0005 mg/mL, and europilated anti-phosphoPLK Ab (Eu-anti-PLK) at a final conc of 0.02 nM.
The assay plate is read in either a Discovery or a RubyStar. The eu-anti-PLK is excited at 320 nm and emits at 615 nm to excite the SA-APC which in turn emits at 655 nm.
A general note: Time-resolved FRET reads energy transfer from a long-lived donor to a nearby acceptor.

The target of another test is T2, AuroraB (Homo sapiens, UniProt Q96GD4).
T2 construct: 20 µL of AuroraB FL His; His
Put plainly: AuroraB Homogeneous Time Resolved Fluorescent (HTRF) kinase assay. Type of test: biochemical. On the procedure: AuroraB-Homogeneous Time Resolved Fluorescent (HTRF) Kinase Assay:
The AuroraB HTRF assay begins with AuroraB in the presence of ATP phosphorylating the biotinylated peptide Histone H3. The reaction incubates for about 90 min. the reaction is quentched by addition of detection reagents, which stop the reaction by diluting out the enzyme and chelating the metals due to the presence of EDTA. After addition, the assay is incubated for about 60 min to allow detection reagents to equilibrate.
The AuroraB HTRF assay comprises 1 µL of compound in 100% DMSO, 20 µL of ATP and biotinylated Histone H3, and 20 µL of AuroraB FL His for a final volume of 41 µL. The final concentration of Histone H3 is 0.1 µM. The final concentration of ATP is 23 µM (Km(app) = 23 µM+/-2.6) and the final concentration of AuroraB is 400 pM. Buffer conditions are as follows: 50mM HEPES pH 7.5, 5mM NaCl, 0.5mM MgCl, 0.5mM MnCl, 2mM DTT, 0.05% BSA.
The assay is quenched and stopped with 160 µL of detection reagent. Detection reagents are as follows: Buffer made of 50mM Tris, pH 7.5, 100mM NaCl, 3mM EDTA, 0.05% BSA, 0.1% Tween20. Added to this buffer prior to reading is Steptavidin allophycocyanin (SA-APC) at a final conc in the assay of 0.001 mg/mL, and europilated anti-phosphoHistoneH3 Ab (Eu-anti-HisH3) at a final conc of 0.064 nM.
The assay plate is read in either a Discovery or a RubyStar. The eu-anti-HisH3 is excited at 320 nm and emits at 615 nm to excite the SA-APC which in turn emits at 655 nm. The ratio of SA-APC at 655 nm (excited due to close proximity to the Eu-anti-HisH3 because of phosphorylation of the peptide) to free Eu-anti-HisH3 at 615 nm will give substrate phosphorylation.

The mark [1] stands for this setting: read-out: average inhibitory activity (IC50) in the Aurora kinase A HTRF assay.
Setting [2] is: read-out: average activity in the Aurora kinase B HTRF assay.
[3] abbreviates: read-out: average activity in the Aurora kinase A HTRF assay.
Where [4] appears, read: average, given as numbers, unit inferred, read-out: AurB_ _IC50_IP (Avg).
Where [5] appears, read: average, given as numbers, unit inferred, read-out: AurA/TP X2_ IC50_IP (Avg).
Where [6] appears, read: average, given as class symbols, read-out: AurB_ _IC50_IP (Avg).

T2 sequence (Q96GD4 whole entry): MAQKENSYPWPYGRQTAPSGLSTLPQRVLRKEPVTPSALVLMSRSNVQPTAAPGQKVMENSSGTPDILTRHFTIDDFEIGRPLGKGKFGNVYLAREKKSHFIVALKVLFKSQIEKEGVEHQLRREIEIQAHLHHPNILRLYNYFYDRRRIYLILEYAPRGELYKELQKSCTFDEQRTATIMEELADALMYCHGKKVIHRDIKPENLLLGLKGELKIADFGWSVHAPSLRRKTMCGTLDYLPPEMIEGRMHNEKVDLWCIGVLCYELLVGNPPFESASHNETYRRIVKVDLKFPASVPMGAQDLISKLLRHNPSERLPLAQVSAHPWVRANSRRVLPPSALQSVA

On to `CNc1cc(-c2cccnc2Oc2ccc(Nc3nnc(-c4ccc(F)cc4)c4ccccc34)cn2)ccn1` [Example 60, 2-((5-((4-(4-fluorophenyl)-1-phthalazinyl)amino)-2-pyridinyl)oxy)-N-methyl-3,4'-bipyridin-2'-amine], for which the IC50 on AuroraA-TPX2 (setting [1]) is less than 500 nM.

For the compound `c1ccc(-c2nnc(Nc3ccc(Oc4ncccc4-c4ccnc5[nH]ccc45)cc3)c3ccccc23)cc1` [Example 61, 4-phenyl-N-(4-((3-(1H-pyrrolo[2,3-b]pyridin-4-yl)-2-pyridinyl)oxy)phenyl)-1-phthalazinamine], at AuroraA-TPX2 (setting [1]), the IC50 was less than 500 nM.

Turning to `Nc1nccc(-c2cccnc2Oc2ccc(Nc3nnc(N4CCCCC4)c4ccccc34)cc2)n1` [Example 67, N-(4-((3-(2-amino-4-pyrimidinyl)-2-pyridinyl)oxy)phenyl)-4-(1-piperidinyl)-1-phthalazinamine], the IC50 at AuroraA-TPX2 (setting [1]) was less than 500 nM.

For the compound `CNc1nccc(-c2cccnc2Oc2ccc(Nc3nnc(N4CCCCC4)c4ccccc34)cn2)n1` [Example 68, N-(6-((3-(2-(methylamino)-4-pyrimidinyl)-2-pyridinyl)oxy)-3-pyridinyl)-4-(1-piperidinyl)-1-phthalazinamine], the IC50 at AuroraA-TPX2 (setting [1]) is less than 500 nM.

For the compound `NC(=O)c1n[nH]cc1-c1cccnc1Oc1ccc(Nc2nnc(-c3ccccc3)c3ccccc23)cc1` [Example 241, 4-(2-(4-(4-phenylphthalazin-1-ylamino)phenoxy)pyridin-3-yl)-1H-pyrazole-3-carboxamide], the IC50 at AuroraB (setting [2]) and on AuroraA-TPX2 (setting [3]) was no more than 1000 nM in each case.

For the compound `CNc1nccc(-c2cccnc2Oc2ccc(Nc3nnc(-c4cc(Cl)cs4)c4ccccc34)cc2)n1` [Example 245, 4-(4-chlorothiophen-2-yl)-N-(4-(3-(2-(methylamino)pyrimidin-4-yl)pyridin-2-yloxy)phenyl)phthalazin-1-amine], the IC50 on AuroraB (setting [2]) and on AuroraA-TPX2 (setting [3]) was no more than 1000 nM each time.

For the compound `c1ccc(-c2nnc(Nc3cnc(Oc4ccccc4-c4ccncc4)nc3)c3ccccc23)cc1` [Example 468, 4-Phenyl-N-(2-(2-(pyridin-4-yl)phenoxy)pyrimidin-5-yl)phthalazin-1-amine], the IC50 at AuroraB (setting [2]) and on AuroraA-TPX2 (setting [3]) was no more than 100 nM throughout.

Take `Nc1ncc(F)c(-c2cccnc2Oc2ccc(Nc3nnc(-c4ccccc4)c4ccccc34)cc2)n1` [Example 469, N-(4-(3-(2-Amino-5-fluoropyrimidin-4-yl)pyridin-2-yloxy)phenyl)-4-phenylphthalazin-1-amine]: the IC50 at AuroraB (setting [2]) and on AuroraA-TPX2 (setting [3]) was no more than 100 nM in each case.

For `COC(=O)c1cc(-c2ccccc2)nnc1Nc1ccc(Oc2ncccc2-c2ccnc(N)n2)cc1` [Example 470, methyl 3-((4-((3-(2-amino-4-pyrimidinyl)-2-pyridinyl)oxy)phenyl)amino)-6-phenyl-4-pyridazinecarboxylate], the IC50 on AuroraB (setting [2]) and at AuroraA-TPX2 (setting [3]) was no more than 1000 nM in each case.

As to `Nc1nccc(-c2cccnc2Oc2ccc(Nc3nnc(-c4ccc(CN5CCCC5)cc4)c4ccccc34)cc2)n1` [Example Method E, N-(4-(3-(2-aminopyrimidin-4-yl)pyridin-2-yloxy)phenyl)-4-(4-(pyrrolidin-1-ylmethyl)phenyl)phthalazin-1-amine], the IC50 on AuroraB (setting [2]) and on AuroraA-TPX2 (setting [3]) was no more than 1000 nM each time.

Regarding `O=P(O)(O)OCCCNc1nccc(-c2cccnc2Oc2ccc(Nc3nnc(-c4ccccc4)c4ccccc34)cc2)n1` [Example Method F, 3-(4-(2-(4-(4-phenylphthalazin-1-ylamino)phenoxy)pyridin-3-yl)pyrimidin-2-ylamino)propyl dihydrogen phosphate dihydrochloride], the IC50 on AuroraB (setting [2]) and at AuroraA-TPX2 (setting [3]) was no more than 100 nM throughout.

Take `Cc1cc(-c2nnc(Nc3ccc(Oc4ncccc4-c4ccnc(N)n4)cc3)c3ccccc23)sn1` [compound 251, N-(4-((3-(2-amino-4-pyrimidinyl)-2-pyridinyl)oxy)phenyl)-4-(3-methyl-5-isothiazolyl)-1-phthalazinamine]: the results for the IC50 at AuroraB (setting [4]) and at AuroraA-TPX2 (setting [5]) were 0.4 nM and 16 nM, respectively.

In the case of `c1ccc(-c2nnc(Nc3ccc(Oc4ccccc4-c4ccncc4)cc3)c3ccccc23)cc1` [compound 252, 4-phenyl-N-(4-((2-(4-pyridinyl)phenyl)oxy)phenyl)-1-phthalazinamine], the figures for the IC50 on AuroraB (setting [4]) and at AuroraA-TPX2 (setting [5]) were 660 nM and 166 nM, respectively.

For `COc1cccc(OC)c1-c1nnc(Nc2ccc(Oc3ncccc3-c3ccnc(N)n3)cc2)c2ccccc12` [compound 253, N-(4-((3-(2-amino-4-pyrimidinyl)-2-pyridinyl)oxy)phenyl)-4-(2,6-bis(methyloxy)phenyl)-1-phthalazinamine], the figures for the IC50 at AuroraB (setting [4]) and on AuroraA-TPX2 (setting [5]) were 472 nM and 2320 nM, respectively.

Regarding `Cc1csc(-c2cc(C)c(Nc3ccc(Oc4ncccc4-c4ccnc5c4CCCN5)cc3)nn2)n1` [compound 286, 4-methyl-6-(4-methyl-1,3-thiazol-2-yl)-N-(4-((3-(5,6,7,8-tetrahydro-1,8-naphthyridin-4-yl)-2-pyridinyl)oxy)phenyl)-3-pyridazinamine], the IC50 at AuroraB (setting [6]) lay in the range of 500 to 2500 nM.

Regarding `COc1ccc(CNc2cc(-c3ccccc3Oc3ncc(Nc4nnc(-c5ccccc5)c5ccccc45)cn3)ccn2)cc1` [compound 290, N-(2-((2-(2-(((4-(methyloxy)phenyl)methyl)amino)-4-pyridinyl)phenyl)oxy)-5-pyrimidinyl)-4-phenyl-1-phthalazinamine], the IC50 at AuroraB (setting [6]) was 500 to 2500 nM.

Regarding `c1ccc(-c2nnc(Nc3ccc(Oc4ncccc4-c4ccnc(N5CCC5)n4)cc3)c3ccccc23)cc1` [compound 294, N-(4-((3-(2-(1-azetidinyl)-4-pyrimidinyl)-2-pyridinyl)oxy)phenyl)-4-phenyl-1-phthalazinamine], the IC50 at AuroraB (setting [6]) is no more than 100 nM.

Regarding `Oc1nccc(-c2cccnc2Oc2ccc(Nc3nnc(-c4ccccc4)c4ccccc34)cc2)n1` [compound 325, 4-(2-((4-((4-phenyl-1-phthalazinyl)amino)phenyl)oxy)-3-pyridinyl)-2-pyrimidinol], the IC50 on AuroraA-TPX2 (average, given as class symbols, read-out: AurA/TP X2_ IC50_IP (Avg)) was in the range of 500 to 2500 nM.

For `Nc1nccc(-c2cccnc2Oc2ccc(Nc3nnc(N4CCC(CO)CC4)c4ccccc34)cc2)n1` [compound 353, (1-(4-((4-((3-(2-amino-4-pyrimidinyl)-2-pyridinyl)oxy)phenyl)amino)-1-phthalazinyl)-4-piperidinyl)methanol], on AuroraB (setting [6]), the IC50 was no more than 100 nM.

Consider `C[C@H]1CN(c2nnc(Nc3ccc(Oc4ncccc4-c4ccnc(N)n4)cc3)c3ccccc23)CCN1` [compound 398, N-(4-((3-(2-amino-4-pyrimidinyl)-2-pyridinyl)oxy)phenyl)-4-((3S)-3-methyl-1-piperazinyl)-1-phthalazinamine], for which, at AuroraB (setting [6]), the IC50 was 100 to 500 nM.

On to `Nc1nccc(-c2cccnc2Oc2ccc(Nc3nnc(-c4cccc(CNCCO)c4)c4ccccc34)cc2)n1` [compound 413, 2-(((3-(4-((4-((3-(2-amino-4-pyrimidinyl)-2-pyridinyl)oxy)phenyl)amino)-1-phthalazinyl)phenyl)methyl)amino)ethanol], for which the IC50 on AuroraB (setting [6]) was no more than 100 nM.
